Results on one compound are retold here after patent US10315990B2, “Isothiocyanate compounds and isothiocyanate XPO1 protein inhibitor drugs thereof” (DRIVINGFORCE THERAPEUTICS Co., Ltd., priority 2015, dated 2019).

For experiment [1], the system named is 786-O. The experiment in a line: Inhibitory activity for other high metastasis type cancer cell line (MTT or CCK-8). Format: cell-based. The note with it: Homo sapiens, 786-0; 786-O, 72 hours; read-out: IC50.
Experiment [2] concerns KYSE-70. The experiment is described as above. The following applies: Homo sapiens; KYSE-70, 72 hours; read-out: IC50. Format: cell-based.
Experiment [3] relates to IL-6. The experiment in a line: Serum IL-6 level of IBD animal model (ELISA). The note with it: 80 mg/kg, three days after making the TNBS model. Format: in vivo, SD rats. From the text:
(§1) Inflammatory bowel disease is an autoimmune disease. […] The therapeutic effect of the representative compound for the immune system disease or inflammation can be assessed by detecting change in levels of some important cytokines such as TNF-α and IL-6 at downstream of the signal path.

In experiment [4] the test system is TNF-α. The experiment in a line: Serum TNF-α level of IBD animal model (ELISA). Format: in vivo, SD rats. The following applies: 80 mg/kg, three days after making the TNBS model.
From the text: as §1

Experiment [5] relates to NCI-H1650. Kind of experiment: cells. Format: cell-based. The following applies: Homo sapiens; NCI-H1650, 72 hours; read-out: IC50.
The subject of experiment [6] is NCI-H1975. The experiment in a line: cells. In kind it is cell-based. The note with it: Homo sapiens; NCI-H1975, 72 hours; read-out: IC50.
Experiment [7] has as its system Saos-2. The experiment in a line: Inhibitory activity for other high metastasis type cancer cell line (MTT or CCK-8). The following applies: Homo sapiens; Saos-2, 72 hours; read-out: IC50. In kind it is cell-based.
The subject of experiment [8] is SK-OV3 (high metastasis type ovarian cancer cell line). Kind of experiment: Ovarian cancer intraperitoneal metastasis animal model. Format: in vivo, nudemice (BALB/c-nu/nu). The following applies: Mus musculus, SK-OV-3, ip.
Experiment [9] relates to IBD animal model. The experiment in a line: Macroscopic pathological changes of IBD animal model (enteroclysis with TNBS). In kind it is in vivo, SD rats. The following applies: TNBS rats. An outline of the steps: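 Male SD rats, eight weeks old (10 per group), given rectal TNBS in 50% ethanol at 100 mg/kg 5 cm from anus; controls received saline. Drug treatment for two weeks, then rectum photographed, weighed and scored macroscopically for ulceration and bleeding.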

Experiment [10] has as its target T1, XPO1 protein (Homo sapiens, UniProt O14980).
T1 construct: Sixteen hours later, NES-GFP plasmid was transfected with liposome; endogenous in cells
Kind of experiment: Inhibitory activity for XPO1 protein (NES-GFP nuclear export, laser confocal microscope). In kind it is cell-based. The following applies: NES-GFP nuclear export, cells treated for 2 hours.

In experiment [11] the test system is A2780. The experiment in a line: Inhibitory activity for high metastasis type ovarian cancer cell line (MTT or CCK-8). The following applies: Homo sapiens; A2780, 72 hours; read-out: IC50. Format: cell-based. The procedure: (§2) The two cell lines were inoculated on 96-well cell culture plate in an amount of 6000 cells per well and cultured at 37° C. for 24 hours, and then treated solely with the representative compound added therein and cultured. Seventy-two hours later, MTT or CCK-8 method was used to detect the inhibitory activity of the representative compound for the high metastasis type ovarian cancer cell lines.

The subject of experiment [12] is HO-8910. Described as above. The note with it: HO-8910, 72 hours; read-out: IC50. Format: cell-based. As for the experimental part: as §2
In experiment [13] the test system is HCT116. Kind of experiment: Inhibitory activity for high metastasis type colon cancer cell line (MTT or CCK-8). Format: cell-based. The following applies: Homo sapiens, HCT-116; HCT116, 72 hours; read-out: IC50. The procedure:
(§3) SW620 and HCT116 are two typical high metastasis type colon cancer cell lines. The colon cancer cell line was inoculated on 96-well cell culture plate in an amount of 6000 cells per well and cultured at 37° C. for 24 hours, and then treated solely with the compound added therein and cultured. Seventy-two hours later, MTT or CCK-8 method was used to detect the inhibitory activity of the compound for the two high metastasis type colon cancer cell lines.

Experiment [14] deals with SW620. The experiment is described as above. The note with it: Homo sapiens, SW-620; SW620, 72 hours; read-out: IC50. In kind it is cell-based. As for the experimental part:
as §3

T1 sequence (O14980 whole entry, species assumed): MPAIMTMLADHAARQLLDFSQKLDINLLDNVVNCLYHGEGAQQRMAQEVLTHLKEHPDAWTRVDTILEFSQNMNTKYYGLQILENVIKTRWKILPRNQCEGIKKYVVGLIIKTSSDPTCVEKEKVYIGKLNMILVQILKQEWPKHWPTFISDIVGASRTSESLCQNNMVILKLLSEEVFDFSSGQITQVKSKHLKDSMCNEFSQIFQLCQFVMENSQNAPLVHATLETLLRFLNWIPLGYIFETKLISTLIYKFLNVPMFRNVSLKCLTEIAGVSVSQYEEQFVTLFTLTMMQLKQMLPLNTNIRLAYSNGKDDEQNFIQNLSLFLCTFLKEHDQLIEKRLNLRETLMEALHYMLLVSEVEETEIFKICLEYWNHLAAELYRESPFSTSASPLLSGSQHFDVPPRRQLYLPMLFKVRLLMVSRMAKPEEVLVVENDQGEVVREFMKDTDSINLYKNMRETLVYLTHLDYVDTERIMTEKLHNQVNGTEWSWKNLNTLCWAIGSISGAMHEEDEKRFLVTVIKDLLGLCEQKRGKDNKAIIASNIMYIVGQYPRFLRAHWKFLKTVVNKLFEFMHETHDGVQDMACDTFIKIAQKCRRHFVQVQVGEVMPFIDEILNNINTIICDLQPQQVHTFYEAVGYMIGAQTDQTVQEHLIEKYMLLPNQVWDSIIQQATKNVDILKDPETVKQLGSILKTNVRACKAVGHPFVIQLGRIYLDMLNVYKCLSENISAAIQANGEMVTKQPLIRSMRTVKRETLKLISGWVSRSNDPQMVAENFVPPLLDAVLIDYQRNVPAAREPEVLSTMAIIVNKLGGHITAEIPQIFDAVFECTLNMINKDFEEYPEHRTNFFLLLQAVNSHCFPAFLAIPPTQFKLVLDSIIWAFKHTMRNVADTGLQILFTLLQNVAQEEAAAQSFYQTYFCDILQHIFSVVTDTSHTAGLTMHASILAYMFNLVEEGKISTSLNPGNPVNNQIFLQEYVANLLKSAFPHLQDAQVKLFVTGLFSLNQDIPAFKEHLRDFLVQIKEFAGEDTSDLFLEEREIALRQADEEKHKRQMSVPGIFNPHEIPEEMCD

Consider `C[S+]([O-])CCCCN=C=S` (centres unmarked) [SFN, sulforaphane, reference compound], for which the IC50 in experiment [1] worked out at 10.2 µM; in experiment [2], 11.3 µM; in experiment [5] it was 18.1 µM; in experiment [6], 20.3 µM; in [7] it was 14.5 µM; in experiment [11], 23.2 µM. Besides, the IC50 in [12] was 21.3 µM; in experiment [13], 13.2 µM; in [14], 15.1 µM. Besides, in [3] (Animal-1), the “Serum IL-6 level, Animal-1” value is 2.5 ng/mL. The “Serum IL-6 level, Animal-2” value in experiment [3] (Animal-2) is 2.4 ng/mL. The “Serum IL-6 level, Animal-3” value in experiment [3] (Animal-3) is 2.3 ng/mL. For the same compound, in experiment [4] (Animal-1), the “Serum TNF-α level, Animal-1” value worked out at 2.1 ng/mL. Moreover, the “Serum TNF-α level, Animal-2” value in [4] (Animal-2) came to 1.8 ng/mL. The “Serum TNF-α level, Animal-3” value in [4] (Animal-3) amounted to 2.1 ng/mL. In addition, the response vs control in vivo at 80 mg/kg in experiment [8] (504 h, 80 mg/kg intraperitoneal injection once a day for 3 weeks, read-out: T/C (%)) was 95%. For the same compound, in experiment [8] (720 h, read-out: Mortality (within 30 days)), the mortality at 80 mg/kg is 16.7%. Moreover, the Macroscopic pathological score in [9] (80 mg/kg intragastrically daily, score 0-5, 10 animals) worked out at 4.0 ± 0.5. Further, the “colon tissue bleeding and ulceration phenomena (in words)” value in [9] (80 mg/kg) is listed as “small relief extent”. In addition, the “Activity (μM): inhibitory activity for XPO1 protein (full inhibitory concentration)” value in experiment [10] worked out at 35 µM.
